Data on 13 compounds can be found in paper PMC5556109, “A combinatorial approach for the discovery of cytochrome P450 2D6 inhibitors from nature” (Scientific Reports, 2017).

Like-named read-outs stand apart in the source and are kept apart here.

The subject of data set [1] is CYP2D6. The arrangement: method as in earlier work. The settings on record: ME-luciferin-EGE as CYP2D6 substrate; cited from earlier work.
The test system of another data set is firefly-luciferase. As to conditions: cited from earlier work.
Data set [2] addresses T1, CYP2D6 (Homo sapiens, UniProt P10635). The data set is described as follows: P450-Glo CYP2D6 inhibition assay (bioluminescence-based; pre-screen at 100 µM and IC50 determination). The settings on record: for classification of CYP2D6 inhibition (actives / weak actives / inactives): ranked by IC50, inactives from pre-screen at 100 µM.
Protocol: (§1) Their CYP2D6 inhibitory potential was determined at a concentration of 100 µM in a final reaction volume of 50 µl. […] All compounds were dissolved in DMSO and the concentration thereof in the final reaction volume was 1%, according to the limitations indicated in the manufacturer’s protocol. […] To take into account the background luminescence, which may derive from a non-enzymatic conversion of ME-luciferin-EGE to luciferin, we included a ‘minus P450’ control that contained no CYP2D6 enzyme. In order to quantify CYP2D6 activity, we subtracted background values prior to calculating the percentage of total luminescence (% TL) obtained from the solvent control (set to 100%). Low % TL indicates low CYP2D6 activity.
(§2) In the three minus P450 control wells, 12.25 µl of the 4× reaction mixture was added. […] The plate was incubated for 10 minutes. The CYP2D6 enzyme reaction was initiated by the addition of 25 µl of 2× NADPH regeneration system (2.6 mM NADP^+, 6.6 mM glucose-6-phosphate, 6.6 mM MgCl2 and 0.8 U/ml glucose-6-phosphate dehydrogenase buffered in 0.1 mM sodium citrate at pH 5.5; Promega). After 45 minutes incubation, the enzyme reaction was stopped by the addition of 50 µl of the luciferin detection reagent, which contained also the esterase for the generation of the luminescence signal. The plate was incubated in the dark for 20 minutes in order to stabilize the signal measured by a Tecan infinite F200 PRO plate reader. […] The maximum allowed DMSO concentration in the final reaction mix was 1% according to the manufacturer’s protocol. The experiment was performed at room temperature and under prevention of excessive UV-light at minimum on two independent days (n = 2).
(§3) Concentration-dependent CYP2D6 inhibition assays were performed by preparing a 5-step dilution series of the 400 µM compound solutions. […] After this dilution step, 12.5 µl of each dilution was transferred to the assay plate. The assay was performed as described above. The DMSO concentration was kept constant for all concentrations with a maximum of 1%. The experiments were performed on three independent experimental days (n = 3).
(§4) Raw data obtained from Tecan infinite F200 PRO plate reader was processed by calculating total luminescence (% of untreated control) by applying the formula: raw data − (background luminescence) * 100/mean of negative control.
In data set [3] the target is T1, CYP2D6. The data set is described as follows: in vitro. As to conditions: recombinant enzyme, pH 7.4.
Protocol: as §1, §2, §3, §4
In data set [4] the target is T1, CYP2D6. As to conditions: recombinant enzyme.
Protocol: as §1, §2, §3, §4
Data set [5] concerns P450-Glo detection reaction (unspecific esterase and modified firefly-luciferase).
Description: (§5) This detection-reagent consists of i) a detergent that stops the CYP2D6 enzyme reaction, ii) an unspecific esterase that continuously releases luciferin and iii) a modified firefly-luciferase, thus a stable luminogenic signal is generated, which can be quantified by a luminometer (Fig. 1). The detection reaction is incorporated in the P450-Glo CYP2D6 inhibition assay. However, we implemented additional controls for unspecific interactions of the test compounds with the detection reaction. For this purpose, the previously established luminescence quenching control reaction reported by Modarai et al.[9] was adapted to our requirements with modifications for the use of larger sample volumes. In addition, Modarai et al. converted ME-luciferin-EGE to luciferin in the absence of a test compound and then evaluated the inhibition of the luciferase reaction.We conducted the control step by using pure luciferin-EGE, esterase, luciferase and a test compound in the absence of CYP2D6 (Supplementary Table S4).
(§6) The quantification of the P450-Glo detection reaction was performed by subtracting the background values prior to calculating the percentage of total luminescence (% TL) based on the total luminescence obtained from the solvent control (set to 100%).
(§7) We then added 12.5 µl 4× reaction mixture (5 µl 1.5 mM luciferin-EGE stock solution, 500 µl 1 M KPO4 buffer and 745 µl luciferase free water) to the wells. Finally, 25 µl of the 2× NADPH regeneration system was added. In order to initiate the detection reaction, 50 µl of the reconstituted luciferin detection reagent containing the esterase was added to the samples, positive and solvent control wells. This step was followed by 20 minutes incubation in the dark for signal stabilization. In the wells reserved for background luminescence, luciferase-free water was added. Measurements were performed on a Tecan infinite F200 PRO plate reader on two independent days (n = 2) at minimum.
as §4
(§8) A one-way ANOVA followed by Dunnett’s multiple comparisons test was performed. […] A p-value of < 0.05 was used to indicate significance.
For data set [6], the system named is CYP2D6. The data set is described as follows: CYP2D6 inhibition of virtual hits already reported in the literature. An excerpt:
the hits according to non-available CYP2D6 inhibition data, plant origin and availability. The

The test system of data set [7] is CYP2D6. As to conditions: Supplementary Table S2, supplementary reference list, cited from earlier work; for IC50: read-out: Inhibitory potency IC50.
For data set [8], the system named is P450-Glo detection reaction (unspecific esterase and modified firefly-luciferase). The data set is described as follows: P450-Glo detection reaction control (luciferin-EGE, esterase, luciferase, test compound, no CYP2D6).
Description: as §5, §6, §7, §4, §8
Where [9] appears, read: authors' classification of the literature value, Supplementary Table S2.

T1 sequence (P10635 whole entry): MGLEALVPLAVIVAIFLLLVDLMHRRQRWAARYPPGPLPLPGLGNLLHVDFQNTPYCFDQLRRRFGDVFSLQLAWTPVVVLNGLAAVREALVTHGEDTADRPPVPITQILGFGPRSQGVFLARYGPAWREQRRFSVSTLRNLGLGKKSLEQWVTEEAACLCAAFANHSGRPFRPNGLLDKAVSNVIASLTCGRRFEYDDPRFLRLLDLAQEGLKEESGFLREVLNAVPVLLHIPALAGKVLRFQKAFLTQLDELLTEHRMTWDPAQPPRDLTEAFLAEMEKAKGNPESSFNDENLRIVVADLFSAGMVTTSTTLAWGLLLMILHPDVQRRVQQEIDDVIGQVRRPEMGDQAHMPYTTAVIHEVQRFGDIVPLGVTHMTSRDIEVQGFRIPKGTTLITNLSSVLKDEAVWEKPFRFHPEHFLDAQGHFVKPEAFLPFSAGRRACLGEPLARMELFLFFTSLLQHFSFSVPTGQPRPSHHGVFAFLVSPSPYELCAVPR

In the case of `COc1ccc2nc(C3=NC(C(=O)OCCO)CS3)sc2c1` (stereo not drawn) [ME-luciferin-EGE, methoxy-luciferin-ethylene glycol ester], in the data set on CYP2D6 [1], the “turnover number (kcat)” value was 0.118 s⁻¹.

As to `Oc1ccc(/C=C/c2cc(O)cc(O)c2)cc1` [Compound 24, Resveratrol, reference compound], in the data set with firefly-luciferase, the inhibition of firefly-luciferase result is recorded as “lower micromolar range”. In addition, the “classification of CYP2D6 inhibition (actives / weak actives / inactives)” value on CYP2D6 [2] is listed as “weak actives”.

Consider `CN1Cc2c(ccc3c2OCO3)[C@@H]2[C@H]1c1cc3c(cc1C[C@@H]2O)OCO3` [Compound 21, (+)-Chelidonine], for which, on CYP2D6 [2], the half-maximal inhibitory concentration (IC50) (in general, the point on the concentration scale where inhibition reaches its midpoint) stood at 0.0225 µM. Further, on CYP2D6 [3], the inhibition (commonly the drop in the measured response relative to a control, in per cent) at 100 µM was determined as 99.5%. For the same compound, the “classification of CYP2D6 inhibition (actives / weak actives / inactives)” value on CYP2D6 [4] is “actives (key: actives: those compounds were classified as active, which exhibited CYP2D6 IC50 values up to 10 µM; inactives showed less than 50 % total luminescence at a concentration of 100 µM)”. Further, at CYP2D6 [4] (100 µM), the “total luminescence in CYP2D6 inhibition pre-screen” value is 0.45 % TL. Moreover, the “P450-Glo Detection Reaction MEAN (total luminescence)” value in data set [5] amounted to 98.77 % TL.

In the case of `COc1cc2c(cc1OC)[C@H]1[C@@H](C)c3ccc(OC)c(OC)c3CN1CC2` [Corydaline], the “Classification of literature CYP2D6 inhibition” value in the data set on CYP2D6 [6] (setting [9]) is “weak”; in the data set with CYP2D6 [6] (w/o preincubation, authors' classification of the literature value, Supplementary Table S2) it was “inactive”. The figures for the half-inhibitory concentration (IC50) with CYP2D6 [7] (w/ preincubation) and in the data set with CYP2D6 [7] (w/o preincubation) were 64.5 ± 9.8 µM and 116 ± 7.6 µM, respectively.

As for `COc1cc2c(cc1OC)C(=O)Cc1ccc3c(c1CN(C)CC2)OCO3` [Cryptopine], in the data set with CYP2D6 [6] (setting [9]), the “Classification of literature CYP2D6 inhibition” value is listed as “unclear”. Further, in the data set with CYP2D6 [7], the “Inhibitory potency” value is given as “stated as inhibitor”.

On to `CN1CCc2cc3c(cc2C(=O)Cc2ccc4c(c2C1)OCO4)OCO3` [Protopine], for which the “Classification of literature CYP2D6 inhibition” value in the data set on CYP2D6 [6] was “active”. Moreover, the Ki (commonly a dissociation constant, usually derived from enzyme kinetics or from competition with a known ligand) with CYP2D6 [7] (read-out: Inhibitory potency Ki) is 0.078 µM.

`COc1cc2c(cc1O)CCN1Cc3c(ccc(OC)c3OC)C[C@H]21` [Corypalmine]: the “Classification of literature CYP2D6 inhibition” value in the data set on CYP2D6 [6] (setting [9]) is “active”. Besides, the 50% inhibitory concentration (IC50) in the data set with CYP2D6 [7] was 1 to 10 µM.

On to `CCC12C=CCN3CC[C@@]4(c5ccc(OC)cc5N(C)[C@H]4[C@@](O)(C(=O)OC)[C@@H]1OC(C)=O)[C@@H]32` (stereo partly drawn) [Vindoline], for which the “Classification of literature CYP2D6 inhibition” value in the data set with CYP2D6 [6] (setting [9]) is “active”. Besides, the IC50 in the data set on CYP2D6 [7] was 15.9 µM.

Compound `COc1ccc(Cc2nccc3cc(OC)c(OC)cc23)cc1OC` [Compound 6, Papaverine] came in with an IC50 at CYP2D6 [2] of 7.02 µM. The “classification of CYP2D6 inhibition (actives / weak actives / inactives)” value on CYP2D6 [4] was “actives (key: actives: those compounds were classified as active, which exhibited CYP2D6 IC50 values up to 10 µM; inactives showed less than 50 % total luminescence at a concentration of 100 µM)”. The “P450-Glo Detection Reaction MEAN (total luminescence)” value in data set [5] was determined as 82.48 % TL.

`COc1cc2c(cc1OC)-c1cc3ccc(OC)c(OC)c3c[n+]1CC2` [Palmatine chloride]: the “Classification of literature CYP2D6 inhibition” value in the data set with CYP2D6 [6] is reported as “weak”. Besides, the “Inhibitory potency (IC50/Ki not specified)” value with CYP2D6 [7] was 92.6 µM.

Turning to `C=C[C@H]1CN2CC[C@H]1C[C@H]2[C@H](O)c1ccnc2ccccc12` [Cinchonidine], the “Classification of literature CYP2D6 inhibition” value in the data set with CYP2D6 [6] (setting [9]) was “active”. Also, the IC50 in the data set on CYP2D6 [7] is 10 µM.

On to `COC1=C[C@@H]2[C@@H]3Cc4ccc(OC)c(O)c4[C@]2(CCN3C)CC1=O` [Sinomenine], for which, in the data set on CYP2D6 [6] (setting [9]), the “Classification of literature CYP2D6 inhibition” value was “inactive”. Besides, the “Inhibitory potency” value in the data set on CYP2D6 [7] (at 50 µM) is reported as “no inhibition”.

Take `COC(=O)C1=CO[C@@H](C)[C@@H]2CN3CC[C@@]4(C(=O)Nc5ccccc54)[C@@H]3C[C@H]12` [Compound 2, Isopteropodine]: at CYP2D6 [2], the IC50 was 89.1 µM and the “classification of CYP2D6 inhibition (actives / weak actives / inactives)” value is listed as “weak actives”. Also, on CYP2D6 [2] (100 µM test compound, solvent control = 100%, low % TL = low CYP2D6 activity), the “total luminescence in CYP2D6 inhibition pre-screen” value stood at 43.22 % TL. Moreover, the inhibition at 100 µM at CYP2D6 [3] was 56.8%. Further, the “P450-Glo Detection Reaction MEAN Diff. (inhibition of the detection reaction)” value in [8] (50 µM test compound, difference to DMSO 1% control) amounted to 7.57%. Further, the “P450-Glo Detection Reaction MEAN (total luminescence)” value in [8] (50 µM test compound, no CYP2D6, DMSO control = 100) was 92.43 % TL. Further, the “p < 0.05 (significant inhibition of the P450-Glo detection reaction)” value in data set [8] (50 µM, one-way ANOVA, Dunnett's test vs DMSO control) is reported as “Yes”.
